# According to patent publication US10006057B2, “Recombinant yeast having enhanced gamma valerolactone tolerance and methods of use” (Wisconsin Alumni Research Foundation, priority 2014, dated 2018):
# “Also recorded” adds a separate entry of the source.
# Experiments:
# Type in all cases: cell-based, Saccharomyces cerevisiae
# S. cerevisiae = assay: 8 point dose curve for chemical genomic profiling; conditions: YP-galactose media, 24 hours of growth
# Protocol: Chemical genomic analysis of poacic acid was performed as described as described previously. The tested yeast deletion collection had ˜4000 strains using the genetic background described in Andrusiak (2012). The optimal inhibitory concentration of poacic acid for chemical genomic profiling (70-80% growth versus solvent control in YP-galactose media after 24 hours of growth) was determined using an 8 point dose curve. A concentration of 88 μg/ml inhibited growth within this range. 200 μl cultures of the pooled, deletion collection of S. cerevisiae deletion mutants were grown with 88 μg/ml poacic acid or a DMSO control in triplicate for 48 h at 30° C. Genomic DNA was extracted using the Epicentre MasterPure™ Yeast DNA purification kit. Mutant-specific molecular barcodes were amplified with specially designed multiplex primers. The barcodes were sequenced using an Illumina MiSeq. 3 replicates of each condition (poacic acid vs DMSO) were sequenced. One DMSO control was lost due to poor sequencing reads. The barcode counts for each yeast deletion mutant in the presence of poacic acid were normalized against the DMSO control conditions to define sensitivity or resistance of individual strains. To determine a p-value for each top sensitive and resistant mutant, we used the EdgeR package. […]
# yeast [1] = assay: 4-vinylphenol-GVL synergy, growth; conditions: FIG. 6C; p<0.01
# yeast [2] = assay: IC50 determination, growth inhibition (strain not stated at the result); conditions: FIG. 6B; p<0.001
# Protocol: (§1) Compounds tested were purchased from Sigma. Cells of S. cerevisiae (MATα pdr1Δ::natMX pdr3Δ::KI.URA3 snq2Δ::KI.LEU2 can1Δ::STE2pr-Sp_his5 lyp1Δ his3Δ1 leu2Δ0 ura3Δ0 met15Δ0), referred to as control strain, were grown in 200 μl cultures at 30° C. in YPD, with a drug or DMSO control. Plates were read on a TECAN M1000 over a 48 h growth period. The specific growth rate was calculated using GCAT analysis software (available at gcat3-pub.glbrc.org on the world wide web). When presented, IC50 values for growth inhibition were calculated from triplicate 8 point dose curves and SigmaPlot 12.0. When presented, error bars are Mean±Standard error of at least 3 replicates.
# [3] = system: PAD1 deletion mutant in the standard lab strain background; assay: GVL IC50, growth inhibition; conditions: single mutant validation; FIG. 4B
# Protocol: as §1
# [4] = system: FDC1 deletion mutant in the standard lab strain background; assay: GVL IC50, growth inhibition; conditions: single mutant validation; FIG. 4B
# Protocol: as §1
# Y133 pad1Δfdc1Δ [5] = assay: Growth and sugar conversion in synthetic hydrolysate with 1% GVL; conditions: anaerobic, synthetic hydrolysate containing 1% GVL; FIG. 5D
# Protocol: (§2) 6 25-mL anaerobic flasks were prepared with Synthetic hydrolysate (SynH) (6% glucose/3% xylose)+1% GVL, pH 5.0. Flasks were inoculated with rinsed 133 or 133 pad1Δfdc1Δ cells to bring the initial OD to approximately 0.1. The tubes were grown for 72 hours with agitation anaerobically at 30° C. 1 mL samples were taken every 24 hours. Initial and daily samples were measured for OD and submitted for HPLC analysis to quantify sugar consumption and ethanol production.
# Y133 background strain = assay: as above; conditions: anaerobic, synthetic hydrolysate containing 1% GVL; FIG. 5D
# Protocol: as §2
# [6] = system: membrane integrity of yeast cells; assay: Cell leakage assay (dye uptake, flow cytometry); conditions: dye uptake after treatment; FIG. 3A, B
# Text: To confirm if GVL treatment can rapidly affect cell integrity, we assessed cell permeability after GVL treatment. […] Given that both GVL and ethanol can damage cellular membranes, we also tested if these compounds are synergistic.
# A FungaLight™ cell viability assay (Invitrogen L34952) was used to determine if poacic acid caused membrane damage we used using a Guava Flow Cytometer (Millipore, USA). The population of stained cells (damaged integrity) vs non-stained cells can be determined by flow cytometry. Caspofungin (50 ng/ml) was included as a positive control. MMS and DMSO were included as a non-cell wall targeting and solvent control respectively. To test the effects of the compounds on both active and arrested cells, log-phase cultures were washed with 1×PBS and resuspended to an OD of 0.5 in either YPD media or YP (no carbon source) in the presence of the drugs (n=3) for 4 hours at 30° C. The cells were then stained and immediately read by flow cytometry. A one-way ANOVA and Tukey's test was used to calculate the difference between drug treatments among cells with arrested growth.
# lab strain = assay: GVL-ethanol synergy, growth; conditions: FIG. 3C
# Protocol: (§3) To test for synergy, a 6×6 dose matrix was initially used to identify potentially synergistic dose combinations, these points were then confirmed in triplicate. 200 μl cultures were grown with combinations of with poacic acid (125 μg/ml), caspofungin (12.5 ng/ml) and fluconazole (3.8 μg/ml) and the relevant single agent and solvent controls their OD measured after 24 h. Synergy was determined by comparing actual optical density in the presence of compound combinations to an expected value calculated using the multiplicative hypothesis. This assumes that, in the absence of an interaction, each compound would decrease the OD of the cell culture by the same fraction in the presence of the other compound as it does when applied alone, i.e., E=A*B/C, where E is the expected OD, A is OD when compound A is applied alone, B is OD when compound B is applied alone, and C is OD of the control culture (DMSO). In the presence of synergy, the actual OD value is lower than the expected OD. A paired t-test was used to confirm statistical significance of this difference in 3 replicates of the experiment.
# (§4) The synergistic interaction between GVL and ethanol was initially discovered using a 6-point dose matrix of the two compounds. We identified the points of the greatest synergy and perform triplicate growth curves of GLBRY-128 using a TECAN M1000 microplate reader. To confirm the GVL-R1 strain was less sensitive to the synergism between GVL and ethanol, used a 6-point dose matrix as described above with both GLBRCY-128 or GVL-R1 in a TECAN microplate reader for 48 hours at 30° C. Data from the most synergistic combination is presented (2% GVL-5% ethanol).
# xylose fermenting strain = assay: GVL-ethanol synergy, growth; conditions: FIG. 3C
# Protocol: as §3, §4
# Y133 pad1Δfdc1Δ [7] = assay: IC50 / tolerance, growth inhibition; conditions: FIG. 5C; p<0.01
# Y133 + pPAD1 = assay: GVL IC50, single mutant cultures; conditions: FIG. 4D
# Text: We wanted to extend our chemical genomic analysis to industrially an industrially relevant, xylose ferment yeast strain. Presently there are no available genome-wide deletion mutant collections in industrial yeast, so we took a complementary approach. The MoBY-ORF 2.0 plasmid collection is with barcoded versions of 95% of all S. cerevisiae genes each expressed on a 2μ plasmid. This collection of plasmids can be pooled and transformed into any yeast to allow investigations of the effect of gene dose under stress conditions. We transformed a version of the xylose-fermenting yeast GLBRC-Y133 [15] en masse with the pooled plasmid collection and selected over 50K individual transformants (10× genome coverage). We grew this pooled transformant collection in the presence of 2.5% GVL or a water control under anaerobic conditions in glucose/xylose containing media and assessed the effects of increased gene dose on growth in the presence of GVL. We found the Pad1p overexpression mutant was one of the top sensitive strains (p<0.01, FIG. 4C). […]
# (§5) Compounds tested were purchased from Sigma. […] Plates were read on a TECAN M1000 over a 48 h growth period. The specific growth rate was calculated using GCAT analysis software (available at gcat3-pub.glbrc.org on the world wide web). When presented, IC50 values for growth inhibition were calculated from triplicate 8 point dose curves and SigmaPlot 12.0. […]
# [8] = system: deletion mutants of SEC28, VPS38, DID2; assay: Single mutant validation of GVL sensitivity; conditions: single mutant cultures; FIG. 2C
# Text: Among the top 10 sensitive deletion mutants, we found significant enrichment for genes involved in late endosome to vacuole transport (p<0.01, FIG. 2B), driven by deletion mutants of SEC28, VPS38, DID2. […] Deletion mutants of these 3 genes have increased sensitivity to ethanol, heat, and membrane disrupting agents such as miconazole and nigercin. When we correlated the chemical genomic profile of GVL with the yeast genetic interaction network, we found significant enrichment for genes involved in golgi-vesicle mediated transport among the top 10 correlations (p=0.001). RET2 was consistently predicted as the top correlation for the GVL chemical genomic profile. Ret2p is a subunit of the coatomer complex involved in retrograde transport between Golgi and ER is also involved in golgi transport of vesicles. RET2 mutants similarity show increased sensitivity to heat and membrane disrupting agents.
# as §5
compound,measurement,setting,value
poacic acid,concentration giving 70-80% growth versus solvent control,S. cerevisiae,88 µg/mL
C=Cc1ccc(O)cc1 [4-vinylphenol],synergistic interaction between 4-vinylphenol and GVL,yeast [1],significantly synergistic; also recorded: statistically significant synergistic interaction
same,IC50 / toxicity of 4-vinylphenol relative to coumaric acid,yeast [2],significantly more toxic; also recorded: an order of magnitude lower
"CC1CCC(=O)O1 (centres unmarked) [GVL, gamma valerolactone]",GVL tolerance of deletion mutant,[3],more tolerant; also recorded: improved GVL tolerance
same,GVL tolerance of deletion mutant,[4],more tolerant; also recorded: improved GVL tolerance
same,"growth, sugar consumption and ethanol production in presence of GVL",Y133 pad1Δfdc1Δ [5],"faster growth, sugar consumption, and ethanol production; also recorded: grew, consumed sugars, and produced ethanol"
same,"growth, sugar consumption and ethanol production in presence of GVL",Y133 background strain,did not
same,GVL concentration at which loss of membrane integrity is apparent,[6],2.5%
same,synergism between GVL and ethanol,lab strain,strong synergism
same,synergistic interaction between GVL and ethanol,"xylose fermenting strain; 1% GVL and 4% ethanol, p<0.01",significantly synergistic; also recorded: significant synergistic interaction
same,synergism between GVL and ethanol,xylose fermenting strain; xylose fermenting strain,strong synergism
same,IC50 concentration / tolerance of GVL versus Y133 background,Y133 pad1Δfdc1Δ [7],significantly greater; also recorded: significantly higher
same,GVL tolerance with increased expression of PAD1,Y133 + pPAD1,significantly reduced GVL tolerance
same,GVL IC50 / sensitivity compared to the control strain,[8],significantly more sensitive; also recorded: lower IC50
